{"source": "patent US9701691B2", "about": "“Thienopyrimidine compounds” (Hoffmann-La Roche Inc., priority 2012, dated 2017)", "key": {"[1]": {"system": "B-cell lymphocytes (CD20+) in human whole blood, CD69 up-regulation", "assay": "B Cell CD69 Up-Regulation Assay in Human Whole Blood", "type": "cell-based", "details": "goat anti-human IgM 50 μg/ml stimulation for 20 hrs, CD69hi CD20+ B cells, read-out: HWB, IC50", "protocol": "B Cell CD69 Up-Regulation Assay in Human Whole Blood\nHuman Blood was collected from healthy volunteers into Vacutainers (BD Biosciences, San Jose, Calif.) containing sodium heparin. Test compound was suspended in DMSO and nine half-log serial dilutions were made. The concentration of DMSO in the assay was 0.5%. […] whole blood was pre-incubated with compound for 30 min and then stimulated with goat anti-human IgM (50 μg/ml, Southern Biotech) for 20 hrs. At the end of the 20 hour incubation, samples were incubated with fluorochrome-conjugated antibodies, PE mouse anti-human CD20 and APC Mouse anti-human CD69 (BD Biosciences), for 30 minutes. Samples were then lysed with Lyse solution (BD) and washed with PBS containing 2% fetal bovine serum (FBS). Fluorescent signals were acquired on flow cytometer LSR II (BD) and data were analyzed by Flow Jo. The percentage of activated (CD69hi) B-cell lymphocytes (CD20+) were determined using un-stimulated (negative control) and stimulated (positive control) wells as reference guidelines. The percentage inhibition was calculated and an IC50 curve was constructed using Xfit in Microsoft Excel with sigmoidal curve fitting."}, "[2]": {"target": "Recombinant human full length SYK protein (Homo sapiens (Human), UniProt P43405)", "assay": "SYK kinase assay (33P ATP incorporation into biotinylated peptide)", "type": "biochemical", "details": "ATP 20 μM", "protocol": "This assay is performed in 96-well format for IC50 determination with 8 samples which represented 10 half log dilutions and a 40 μL reaction volume. […] Phosphorylated products were detected upon termination of reactions with EDTA and the addition of Streptavidin coated beads.\nAssay plates: 96-well MultiScreen 0.65 um filter plates (Millipore Cat. No.: MADVNOB10)\nfinal concentration: 50 mM HEPES pH7.5\nBSA: Bovine Serum Albumin Fraction V, fatty acid free (Roche Diagnostics GmbH, Cat. No. 9100221) diluted to a final concentration of 0.1%\nAssay Dilution Buffer (ADB): 50 mM HEPES, 0.1 mM EGTA, 0.1 mM Na Vanadate, 0.1 mM β-glycerophosphate, 10 mM MgCl2, 1 mM DTT, 0.1% BSA, pH 7.5\nBead wash buffer: 10 g/L PBS (Phosphate buffered saline) with 2M NaCl+1% phosphoric acid."}}, "note": "Structures can show the parent of a compound that is named as a salt."}
{"compound": "Cn1ccc(NC(=O)c2csc3cnc(N[C@@H]4CCOC[C@@H]4N)nc23)n1", "note": "[Compound 19, 2-((3R,4R)-3-Amino-tetrahydro-pyran-4-ylamino)-thieno[3,2-d]pyrimidine-7-carboxylic acid (1-methyl-1H-pyrazol-3-yl)-amide]", "values": [{"measurement": "IC50", "setting": "[1]", "result": 10.7, "unit": "µM"}]}
{"compound": "N[C@H]1CCCC[C@H]1Nc1ncc2scc(C(=O)Nc3nc4ccccc4s3)c2n1", "note": "[Compound 8, 2-((1R,2S)-2-Amino-cyclohexylamino)-thieno[3,2-d]pyrimidine-7-carboxylic acid benzothiazol-2-ylamide]", "values": [{"measurement": "IC50", "setting": "[1]", "result": 50, "unit": "µM"}]}
{"compound": "N[C@H]1COCC[C@H]1Nc1ncc2scc(C(=O)Nc3cccc(-n4ccnn4)n3)c2n1", "note": "[Compound 6, 2-((3R,4R)-3-Amino-tetrahydro-pyran-4-ylamino)-thieno[3,2-d]pyrimidine-7-carboxylic acid (6-[1,2,3]triazol-1-yl-pyridin-2-yl)-amide]", "values": [{"measurement": "IC50", "setting": "[1]", "result": 4.29, "unit": "µM"}]}
{"compound": "N[C@H]1CCCC[C@H]1Nc1ncc2scc(C(=O)Nc3ccc4cnccc4n3)c2n1", "note": "[Compound 7, 2-((1R,2S)-2-Amino-cyclohexylamino)-thieno[3,2-d]pyrimidine-7-carboxylic acid [1,6]naphthyridin-2-ylamide]", "values": [{"measurement": "IC50", "setting": "[1]", "result": 0.55, "unit": "µM"}]}
{"compound": "N[C@H]1COCC[C@H]1Nc1ncc2scc(C(=O)Nc3ccc4ccccc4c3)c2n1", "note": "[Compound 16, 2-((3R,4R)-3-Amino-tetrahydro-pyran-4-ylamino)-thieno[3,2-d]pyrimidine-7-carboxylic acid naphthalen-2-ylamide]", "values": [{"measurement": "IC50", "setting": "[1]", "result": 3.73, "unit": "µM"}]}
{"compound": "N[C@H]1CCCC[C@H]1Nc1ncc2scc(C(=O)Nc3nc4ccccc4[nH]3)c2n1", "note": "[Compound 9, 2-((1R,2S)-2-Amino-cyclohexylamino)-thieno[3,2-d]pyrimidine-7-carboxylic acid (1H-benzoimidazol-2-yl)-amide]", "values": [{"measurement": "IC50", "setting": "[1]", "result": 50, "unit": "µM"}]}
{"compound": "N[C@H]1COCC[C@H]1Nc1ncc2scc(C(=O)Nc3cccc(-n4nccn4)n3)c2n1", "note": "[Compound 5, 2-((3R,4R)-3-Amino-tetrahydro-pyran-4-ylamino)-thieno[3,2-d]pyrimidine-7-carboxylic acid (6-[1,2,3]triazol-2-yl-pyridin-2-yl)-amide]", "values": [{"measurement": "IC50", "setting": "[1]", "result": 3.79, "unit": "µM"}]}
{"compound": "Cn1nc(NC(=O)c2csc3cnc(N[C@@H]4CCCC[C@@H]4N)nc23)c2ccc(F)cc21", "note": "[Compound 15, 2-((1R,2S)-2-Amino-cyclohexylamino)-thieno[3,2-d]pyrimidine-7-carboxylic acid (6-fluoro-1-methyl-1H-indazol-3-yl)-amide trifluoroacetate]", "values": [{"measurement": "IC50", "setting": "[1]", "result": 50, "unit": "µM"}]}
{"compound": "Cc1nc(NC(=O)c2csc3cnc(N[C@@H]4CCCC[C@@H]4N)nc23)ccc1C#N", "note": "[Compound 4, 2-((1R,2S)-2-Amino-cyclohexylamino)-thieno[3,2-d]pyrimidine-7-carboxylic acid (5-cyano-6-methyl-pyridin-2-yl)-amide]", "values": [{"measurement": "IC50", "setting": "[1]", "result": 50, "unit": "µM"}]}
{"compound": "Cn1cc(NC(=O)c2csc3cnc(N[C@@H]4CCOC[C@@H]4N)nc23)cn1", "note": "[Compound 21, 2-((3R,4R)-3-Amino-tetrahydro-pyran-4-ylamino)-thieno[3,2-d]pyrimidine-7-carboxylic acid (1-methyl-1H-pyrazol-4-yl)-amide]", "values": [{"measurement": "IC50", "setting": "[1]", "result": 5.8, "unit": "µM"}]}
{"compound": "N[C@H]1CCCC[C@H]1Nc1ncc2scc(C(=O)Nc3ccc4ncccc4n3)c2n1", "note": "[Compound 10, 2-((1R,2S)-2-Amino-cyclohexylamino)-thieno[3,2-d]pyrimidine-7-carboxylic acid [1,5]naphthyridin-2-ylamide]", "values": [{"measurement": "IC50", "setting": "[1]", "result": 3.74, "unit": "µM"}]}
{"compound": "Cc1cc(C)nc(NC(=O)c2csc3cnc(N[C@@H]4CCOC[C@@H]4N)nc23)c1", "note": "[Compound 24, 2-((3R,4R)-3-Amino-tetrahydro-pyran-4-ylamino)-thieno[3,2-d]pyrimidine-7-carboxylic acid (4,6-dimethyl-pyridin-2-yl)-amide]", "values": [{"measurement": "IC50", "setting": "[1]", "result": 1.53, "unit": "µM"}]}
{"compound": "Cc1cc(NC(=O)c2csc3cnc(N[C@@H]4CCCC[C@@H]4N)nc23)cc2cccnc12", "note": "[Compound 2, 2-((1R,2S)-2-Amino-cyclohexylamino)-thieno[3,2-d]pyrimidine-7-carboxylic acid (8-methyl-quinolin-6-yl)-amide]", "values": [{"measurement": "IC50", "setting": "[2]", "result": "< 0.001", "unit": "µM"}, {"measurement": "IC50", "setting": "[1]", "result": 0.19, "unit": "µM"}]}
{"compound": "Cc1ccc(NC(=O)c2csc3cnc(N[C@@H]4CCOC[C@@H]4N)nc23)cc1", "note": "[Compound 18, 2-((3R,4R)-3-Amino-tetrahydro-pyran-4-ylamino)-thieno[3,2-d]pyrimidine-7-carboxylic acid p-tolylamide]", "values": [{"measurement": "IC50", "setting": "[1]", "result": 12.2, "unit": "µM"}]}
{"compound": "N[C@H]1COCC[C@H]1Nc1ncc2scc(C(=O)Nc3cnc4cccnn34)c2n1", "note": "[Compound 23, 2-((3R,4R)-3-Amino-tetrahydro-pyran-4-ylamino)-thieno[3,2-d]pyrimidine-7-carboxylic acid imidazo[1,2-b]pyridazin-3-ylamide]", "values": [{"measurement": "IC50", "setting": "[1]", "result": 1.36, "unit": "µM"}]}
{"compound": "CCc1cc(NC(=O)c2csc3cnc(N[C@@H]4CCCC[C@@H]4N)nc23)cc2cccnc12", "note": "[Compound 3, 2-((1R,2S)-2-Amino-cyclohexylamino)-thieno[3,2-d]pyrimidine-7-carboxylic acid (8-ethyl-quinolin-6-yl)-amide]", "values": [{"measurement": "IC50", "setting": "[1]", "result": 0.76, "unit": "µM"}]}
{"compound": "Cn1cnc2c(NC(=O)c3csc4cnc(N[C@@H]5CCOC[C@@H]5N)nc34)cccc21", "note": "[Compound 11, 2-((3R,4R)-3-Amino-tetrahydro-pyran-4-ylamino)-thieno[3,2-d]pyrimidine-7-carboxylic acid (1-methyl-1H-benzoimidazol-4-yl)-amide hydrochloride]", "values": [{"measurement": "IC50", "setting": "[1]", "result": 1.44, "unit": "µM"}]}
{"compound": "Cc1ccc(NC(=O)c2csc3cnc(N[C@@H]4CCOC[C@@H]4N)nc23)nc1C", "note": "[Compound 25, 2-((3R,4R)-3-Amino-tetrahydro-pyran-4-ylamino)-thieno[3,2-d]pyrimidine-7-carboxylic acid (5,6-dimethyl-pyridin-2-yl)-amide]", "values": [{"measurement": "IC50", "setting": "[1]", "result": 1.67, "unit": "µM"}]}
{"compound": "CCc1cccc(NC(=O)c2csc3cnc(N[C@@H]4CCOC[C@@H]4N)nc23)n1", "note": "[Compound 1, 2-((3R,4R)-3-Amino-tetrahydro-pyran-4-ylamino)-thieno[3,2-d]pyrimidine-7-carboxylic acid (6-ethyl-pyridin-2-yl)-amide]", "values": [{"measurement": "IC50", "setting": "[1]", "result": 5.38, "unit": "µM"}]}
{"compound": "N[C@H]1COCC[C@H]1Nc1ncc2scc(C(=O)Nc3cnn4cccnc34)c2n1", "note": "[Compound 22, 2-((3R,4R)-3-Amino-tetrahydro-pyran-4-ylamino)-thieno[3,2-d]pyrimidine-7-carboxylic acid pyrazolo[1,5-a]pyrimidin-3-ylamide]", "values": [{"measurement": "IC50", "setting": "[1]", "result": 0.92, "unit": "µM"}]}
{"compound": "Cn1cnc2c(NC(=O)c3csc4cnc(NCCN)nc34)cccc21", "note": "[Compound 12, 2-(2-Amino-ethylamino)-thieno[3,2-d]pyrimidine-7-carboxylic acid (1-methyl-1H-benzoimidazol-4-yl)-amide trifluoroacetate]", "values": [{"measurement": "IC50", "setting": "[1]", "result": 3.06, "unit": "µM"}]}
